Data from PubChem BioAssay (NCI).
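1) Cells in 96-well plates. 2) Compound, 48 h, 5 concentrations. 3) Linear interpolation between surrounding doses. 4) Unreached endpoint = highest concentration. TGI denotes the concentration required for complete inhibition of growth.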

Experiments:
Assay in all cases: DTP human tumour cell line panel, 48 h
[1] = system: OVCAR-3 ovarian
[2] = system: SNB-19 CNS
[3] = system: CCRF-CEM leukemia
[4] = system: HOP-92 NSCLC
[5] = system: MDA-MB-231 breast
[6] = system: A549 NSCLC
[7] = system: SN12C renal
[8] = system: MDA-MB-435
[9] = system: SK-MEL-2 melanoma
[10] = system: UACC-62 melanoma

| SMILES | TGI [1] [µM] | TGI [2] [µM] | TGI [3] [µM] | TGI [4] [µM] | TGI [5] [µM] | TGI [6] [µM] | TGI [7] [µM] | TGI [8] [µM] | TGI [9] [µM] | TGI [10] [µM] |
| --- | --- | --- | --- | --- | --- | --- | --- | --- | --- | --- |
| CC(C)(C)OC(=O)N1CCC2(CC1)C(=O)NCN2c1ccccc1 | > 100 | > 100 | > 100 | > 100 | > 100 | > 100 | > 100 | > 100 | > 100 | > 100 |
| CC1(O)CC23CC(O)C4(O)C(CC(O)C4(C)C)C(C)(O)C2CCC1C3O (stereo unspecified) |  | > 100 | > 100 | > 100 | > 100 | > 100 | > 100 | > 100 | > 100 | > 100 |
| CCOC(=O)CCC(NC(=O)c1ccc(NCc2ccc3nc(OC)c(OC)nc3c2)c2ccccc12)C(=O)OCC (stereo unspecified) | > 100 | > 100 |  | 97.7 | > 100 | > 100 | > 100 | > 100 | > 100 | > 100 |
| C/C(=C\C(=O)O)C(=O)N(C)c1ccccc1I | > 100 | > 100 | > 100 | > 100 | > 100 | > 100 | > 100 | > 100 | > 100 | > 100 |
| CCOC(=O)CSc1nc(-c2ccc(Cl)cc2)c(C#N)c(=O)[nH]1 | > 100 | > 100 | 89 | > 100 | > 100 | > 100 | > 100 | > 100 | > 100 | > 100 |
| CC1CC(C)(C)CC(OCCN2CCCCC2)(c2ccccc2)C1 (stereo unspecified) | 22.5 | 26.7 | 24.9 | 21.7 | 24.9 | 24.6 | 25.4 | 24.7 | 33.4 | 29.6 |
| O=[N+]([O-])/C=C/c1cn(CCCCCCCCn2cc(/C=C/[N+](=O)[O-])c3ccccc32)c2ccccc12 | > 10 | > 10 | > 10 | > 10 | > 10 | > 10 | > 10 | > 10 | > 10 | > 10 |
| CN=C1C=C(/N=C2/C=C(N/C(=C\C#N)C(C)(C)O)OC2(C)C)OC1(C)C | > 100 | > 100 | > 74 | > 71.5 | > 100 | > 100 | > 100 | > 100 | > 82.8 | > 85.8 |
| O=[N+]([O-])C(/C=C(\Cl)[N+](=O)[O-])=C(Nc1ccccc1)Nc1ccccc1 | 17.3 | 32.8 | 5.36 | 14.4 | 26.9 | 31.8 | 29.4 | 17.4 | 35.8 | 21.3 |
| CCOC(=O)c1c(-c2ccc(Cl)cc2)c(C#N)c(=S)n(C2OC(COC(C)=O)C(OC(C)=O)C(OC(C)=O)C2OC(C)=O)c1C (stereo unspecified) | > 100 | > 100 | > 100 | > 20.1 | > 100 | > 100 | > 100 | > 100 | > 66 | > 100 |
| c1ccc(CN2CCC(CNc3ncnc4ccccc34)C2)cc1 (stereo unspecified) | > 100 | > 100 | > 100 | > 100 | > 100 | > 100 | > 100 | > 100 | > 100 | > 100 |
| CC(C)(C)[C@H]1NC(=O)CN1C(=O)OCc1ccccc1 |  | > 100 | > 100 | 31.9 | > 100 | > 100 | > 100 | > 100 | > 100 | > 100 |
| CC1=NN(c2cc(Cl)c(S(=O)(=O)O)cc2Cl)C2(C1)C(Cl)C(=O)N2c1nc2ccccc2s1 (stereo unspecified) |  | > 100 | > 100 | > 100 | > 100 | > 100 | > 100 | > 100 | > 100 | > 100 |
| CC1OC23CCCCC2C(C#N)(C#N)C1(C#N)C(=N)O3 (stereo unspecified) | 36.5 | 65.2 | 46.8 | 29.3 | 32.1 | > 100 | 30.1 | 50.9 | 43.5 |  |
| O=c1[nH]c(NCCCCCO)nc2nc[nH]c12 | > 100 | > 100 | > 100 | > 100 | > 100 |  | > 100 | > 100 | > 100 | > 100 |
| O=C(c1ccccc1)C1C(c2ccccc2[N+](=O)[O-])N1C1CCCCC1 (stereo unspecified) | 7.82 | 32.3 |  | 16.2 | 23 | 44.2 | 15.6 | 10.8 | 18.6 | 20.6 |
| CCOC(=O)NCC(=O)NCC(=O)NCC(N)=O | > 100 | > 100 | > 100 |  | > 100 | > 100 |  | > 100 | > 100 | > 100 |
| N#CC(c1cc(Cl)ncn1)c1nc2cc(C(F)(F)F)ccc2s1 (stereo unspecified) | 17.4 | 22.6 |  | 5.92 | 33.9 | > 100 | > 100 | > 100 |  |  |
| C[N+](C)([O-])C12CC3CC(CC(C3)C1)C2 | 58 | > 100 | > 100 |  | > 100 | > 100 | > 100 | > 100 | > 100 | 47.4 |
| CC(C)C(Nc1c2ccccc2[n+](C)c2ccccc12)C(=O)O (stereo unspecified) | > 100 | > 100 |  |  |  | > 100 | > 100 |  | > 100 | > 100 |
| COC1=C(OC)C(=O)C(Cc2c(-c3ccccc3)nc3sc(Cl)cn23)=C(C)C1=O | 32 | 35.3 | 53 |  | 24.6 | 52 | 30.4 | 33.1 | 36.5 | 24.6 |
| COc1cc2ccc(C(C)NCC#N)cc2cc1OC (stereo unspecified) | > 100 | > 100 |  | > 100 | > 100 | > 100 | > 100 | > 100 | > 100 | > 100 |
